Measured values: PMC10835127, “Viruses traverse the human proteome through peptide interfaces that can be biomimetically leveraged for drug discovery” (Proceedings of the National Academy of Sciences of the …, 2024)
Read-outs that look alike come from different tables or passages of the source.

How the values were obtained:
influenza A H1N1 virus = conditions: 48 hr post-treatment, A549
[1] = tested on: F. novicida (strain U112); format: cell-based
EBV = conditions: normalized mean of EBV replication readout
HIV1 strain NL4-3 = format: cell-based; conditions: for HIV1 Norm MEAN: normalized mean of HIV1 replication readout
HCV replicon = format: cell-based; conditions: for HCV Norm MEAN: normalized mean of HCV replicon readout; for activity in HCV screen (in words): 20 µM peptide, Huh7, replicon luciferase

Substance | Neuraminidase activity normalized to vehicle (influenza A H1N1 virus; 200 µM peptide) | Neuraminidase activity normalized to vehicle (influenza A H1N1 virus; 0,823 µM peptide) | Neuraminidase activity normalized to vehicle (influenza A H1N1 virus; 22,2 µM peptide) | Neuraminidase activity normalized to vehicle (influenza A H1N1 virus; 2,4691 µM peptide) | Neuraminidase activity normalized to vehicle (influenza A H1N1 virus; 7,4074 µM peptide) | Neuraminidase activity normalized to vehicle (influenza A H1N1 virus; 66,6667 µM peptide) | Francisella novicida Norm AUC [1] | EBV Norm MEAN (EBV; peptide screen) | HIV1 Norm MEAN (HIV1 strain NL4-3; peptide screen) | HCV Norm MEAN (HCV replicon; peptide screen) | EBV Norm MEAN (EBV) | HIV1 Norm MEAN (HIV1 strain NL4-3) | activity in HCV screen (in words) (HCV replicon) | HCV Norm MEAN (HCV replicon) | activity in HIV1 screen (in words) (HIV1 strain NL4-3; 20 µM peptide, HeLa P4 cells, β-galactosidase) | inhibition of PI incorporation in F. novicida infected BMDMs (in words) [1]
CPEP126: peptide of the viral peptide library; sequence page not shown (TQNLYPDLSEIKK) | 0,8408 | 0,9498 | 0,8904 | 0,9431 | 0,8627 | 0,9364 | 1.192 | 0.8026 | 0.6553 | 0.4853 | – | – | – | – | – | –
CPEP98: peptide of the viral peptide library; sequence page not shown (PLPPTKAPPIPPPR) | 1,0266 | 0,8951 | 0,9384 | 0,9959 | 0,9005 | 0,9857 | 1.1759 | 0.8005 | 0.2763 | 0.3984 | – | – | – | – | – | –
PVQLSYYD [CPEP144] | 0,7318 | 1,0036 | 0,9081 | 0,8026 | 0,9626 | 0,8536 | 1.621 | – | – | – | 1.072 | 1.139 | peptide inhibiting HCV | 0.1325 | – | –
TRVESENKVVILDSFD [CPEP93] | 1,1147 | 1,1071 | 1,1929 | 1,0829 | 1,1322 | 1,0883 | 0.7068 | 1.069 | 10.6718 | 0.8288 | – | – | – | – | – | –
IKQEDIKP [CPEP109] | 0,7052 | 0,9055 | 0,889 | 0,8881 | 0,975 | 0,8029 | 0.9859 | – | – | – | 0.5875 | 0.5534 | – | 0.2159 | – | –
SVWIPVNEGASTSGM [CPEP77] | 0,8793 | 0,7817 | 0,9377 | 0,8942 | 0,7709 | 0,8131 | 1.232 | 1.026 | 0.1545 | 0.6626 | – | – | – | – | most potent anti-HIV1 peptide | –
PYQLT [CPEP58] | 0,7155 | 0,7664 | 0,8252 | 0,7115 | 0,806 | 0,8444 | 0.486 | – | – | – | 0.8535 | 1.506 | – | 0.1961 | – | –
HFEPPTLHELYDLDVTAP [CPEP115] | 1,0337 | 1,141 | 1,1784 | 1,0495 | 1,1676 | 1,1762 | 1.086 | 0.5144 | 1.21 | 0.5064 | – | – | – | – | – | –
LRKRRKRL [CPEP145] | 0,7911 | 0,8361 | 0,839 | 0,7253 | 0,7634 | 0,9146 | 1.33 | – | – | – | 2.86 | 1.45 | inhibition of RNA | 0.1172 | – | –
WKSKKTP [CPEP78] | 0,663 | 0,9859 | 0,8841 | 0,8283 | 0,8644 | 0,9037 | 0.7597 | – | – | – | 1.01 | 1.618 | – | 0.1248 | – | –
PPPPY [CPEP132] | 0,8244 | 0,8549 | 0,9192 | 0,87 | 0,8306 | 1,0078 | 0.9275 | – | – | – | 1.203 | 1.621 | – | 0.2215 | – | –
TIESEV [CPEP59] | 1,1965 | 1,1044 | 1,0974 | 1,0801 | 1,0995 | 1,0953 | 0.4462 | – | – | – | 1.967 | 0.5804 | – | 0.1611 | – | one of the most potent virus-derived peptides to inhibit PI incorporation
GGKWSKLS [CPEP134] | 0,426 | 0,9416 | 0,8116 | 0,8887 | 0,9196 | 0,7036 | 1.142 | – | – | – | 0.3842 | 1.139 | – | 0.2388 | – | –
RYSKRRHGRR [CPEP118] | 0,7942 | 0,9639 | 0,7875 | 0,9014 | 0,7974 | 0,7776 | 1.247 | – | – | – | 1.996 | 1.129 | – | 0.2514 | – | –
CPEP86: peptide of the viral peptide library; sequence page not shown (SGFGPLITHG) | 0,9563 | 0,7964 | 1,0588 | 1,0728 | 0,943 | 1,0345 | 0.8325 | – | – | – | 1.554 | 0.7849 | – | 0.5296 | – | –
YLTDM [CPEP154] | 1,0928 | 1,0316 | 1,0253 | 0,9855 | 1,0107 | 1,0399 | 0.5909 | – | – | – | 1.807 | 1.461 | – | 0.1792 | – | –
CPEP140: peptide of the viral peptide library; sequence page not shown (RKKRRQRRRA) | 0,616 | 0,9961 | 1,0982 | 1,0685 | 0,9007 | 1,0124 | 0.8228 | – | – | – | 1.618 | 1.188 | – | 0.5668 | – | –
CPEP63: peptide of the viral peptide library; sequence page not shown (KARHKRRNRSSRS) | 0,8323 | 0,6161 | 0,9172 | 1 | 0,9177 | 0,9488 | 1.1166 | – | – | – | 1.249 | 0.7086 | – | 0.5995 | – | –
FPESLIL [CPEP76] | 0,7678 | 0,7594 | 0,787 | 0,7722 | 0,7943 | 0,7797 | 0.9207 | – | – | – | 1.102 | 0.9579 | – | 0.1881 | – | –
